The values below come from ChEMBL document CHEMBL1141082, “4-Anilino-7,8-dialkoxybenzo[g]quinoline-3-carbonitriles as potent Src kinase inhibitors” (J Med Chem, 2005).

The target of test [1] is Cyclin-dependent kinase 4 (Homo sapiens, UniProt P11802). In words: Inhibitory concentration against CDK4.
The target of test [2] is Serine/threonine-protein kinase AKT (Homo sapiens, UniProt P31751+Q9Y243+P31749). In words: Inhibitory concentration against AKT. The test is classed as protein assay.
In test [3] the target is Receptor tyrosine-protein kinase erbB-2 (Homo sapiens, UniProt P04626). In words: nhibitory concentrations against ErbB-2.
Receptor tyrosine-protein kinase erbB-2, sequence (P04626 whole entry): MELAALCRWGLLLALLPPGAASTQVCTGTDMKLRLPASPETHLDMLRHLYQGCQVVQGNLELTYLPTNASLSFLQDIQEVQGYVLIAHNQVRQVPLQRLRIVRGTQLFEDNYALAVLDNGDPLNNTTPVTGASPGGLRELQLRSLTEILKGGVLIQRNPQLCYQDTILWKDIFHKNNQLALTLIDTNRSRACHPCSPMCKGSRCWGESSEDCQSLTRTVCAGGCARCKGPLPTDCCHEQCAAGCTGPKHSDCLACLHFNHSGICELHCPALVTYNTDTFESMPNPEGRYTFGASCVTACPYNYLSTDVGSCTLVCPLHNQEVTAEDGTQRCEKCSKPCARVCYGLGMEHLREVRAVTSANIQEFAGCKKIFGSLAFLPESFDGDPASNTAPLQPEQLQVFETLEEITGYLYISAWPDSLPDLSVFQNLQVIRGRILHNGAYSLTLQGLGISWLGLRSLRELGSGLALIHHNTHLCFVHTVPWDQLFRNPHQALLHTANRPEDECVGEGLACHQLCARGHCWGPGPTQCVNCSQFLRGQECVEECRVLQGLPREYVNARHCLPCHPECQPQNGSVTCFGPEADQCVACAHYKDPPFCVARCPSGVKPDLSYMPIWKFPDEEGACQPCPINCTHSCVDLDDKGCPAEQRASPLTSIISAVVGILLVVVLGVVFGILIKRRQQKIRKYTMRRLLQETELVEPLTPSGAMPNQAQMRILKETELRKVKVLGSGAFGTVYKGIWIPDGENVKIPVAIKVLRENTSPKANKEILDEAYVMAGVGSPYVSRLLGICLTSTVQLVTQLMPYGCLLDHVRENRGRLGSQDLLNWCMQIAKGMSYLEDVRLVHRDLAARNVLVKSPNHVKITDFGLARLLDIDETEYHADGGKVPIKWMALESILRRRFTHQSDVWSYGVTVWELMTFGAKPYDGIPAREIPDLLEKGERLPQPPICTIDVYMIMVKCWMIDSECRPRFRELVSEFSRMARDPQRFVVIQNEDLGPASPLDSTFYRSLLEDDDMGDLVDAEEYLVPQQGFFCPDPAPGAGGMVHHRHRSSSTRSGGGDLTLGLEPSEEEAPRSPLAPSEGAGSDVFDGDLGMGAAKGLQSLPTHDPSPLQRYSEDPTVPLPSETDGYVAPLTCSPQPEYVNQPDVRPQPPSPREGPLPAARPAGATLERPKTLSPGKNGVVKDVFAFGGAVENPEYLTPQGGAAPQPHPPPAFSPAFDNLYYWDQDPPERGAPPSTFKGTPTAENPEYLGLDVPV
Test [4] has as its target Proto-oncogene tyrosine-protein kinase Src (Homo sapiens, UniProt P12931). Nature of the test: Inhibitory concentration against Src kinase.
Test [5] has as its system Mus musculus. In words: Plasma levels in nude mouse after administration at a single dose of 50 mg/kg ip after 4 hr. Particulars: route intraperitoneal. The test is classed as functional.
For test [6], the system named is Mus musculus. In words: Plasma levels in nude mouse after administration at a single dose of 50 mg/kg ip after 8 hr. The class given is functional. As to conditions: route intraperitoneal.
In test [7] the test system is Mus musculus. In words: Plasma levels in nude mouse after administration at a single dose of 50 mg/kg ip after 24 hours. The test is classed as functional. As to conditions: route intraperitoneal.
The test system of test [8] is Mus musculus. In words: Plasma levels in nude mouse after administration at a single dose of 50 mg/kg ip after 0.5 hours. The class given is functional. Particulars: route intraperitoneal.
Test [9] is filed under the species Mus musculus. As to conditions: dose 50 mg/kg; route intraperitoneal.
The subject of test [10] is Mus musculus. Nature of the test: Plasma levels in nude mouse after administration at a single dose of 50 mg/kg ip after 4 hours. The class given is functional. As to conditions: route intraperitoneal.
In test [11] the test system is Mus musculus. In words: Plasma levels in nude mouse after administration at a single dose of 50 mg/kg ip after 8 hours. The test is classed as functional. Particulars: route intraperitoneal.

Cyclin-dependent kinase 4, sequence (P11802 whole entry): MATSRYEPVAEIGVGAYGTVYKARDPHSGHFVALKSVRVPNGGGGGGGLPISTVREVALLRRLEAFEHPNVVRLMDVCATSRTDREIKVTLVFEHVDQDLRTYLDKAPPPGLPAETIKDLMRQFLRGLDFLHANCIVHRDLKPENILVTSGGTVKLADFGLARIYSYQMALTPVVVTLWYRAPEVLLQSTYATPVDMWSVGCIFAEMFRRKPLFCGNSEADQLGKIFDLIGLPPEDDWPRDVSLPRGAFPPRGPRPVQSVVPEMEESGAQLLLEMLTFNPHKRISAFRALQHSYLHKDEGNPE
Proto-oncogene tyrosine-protein kinase Src, sequence (P12931 2-536 limits assumed): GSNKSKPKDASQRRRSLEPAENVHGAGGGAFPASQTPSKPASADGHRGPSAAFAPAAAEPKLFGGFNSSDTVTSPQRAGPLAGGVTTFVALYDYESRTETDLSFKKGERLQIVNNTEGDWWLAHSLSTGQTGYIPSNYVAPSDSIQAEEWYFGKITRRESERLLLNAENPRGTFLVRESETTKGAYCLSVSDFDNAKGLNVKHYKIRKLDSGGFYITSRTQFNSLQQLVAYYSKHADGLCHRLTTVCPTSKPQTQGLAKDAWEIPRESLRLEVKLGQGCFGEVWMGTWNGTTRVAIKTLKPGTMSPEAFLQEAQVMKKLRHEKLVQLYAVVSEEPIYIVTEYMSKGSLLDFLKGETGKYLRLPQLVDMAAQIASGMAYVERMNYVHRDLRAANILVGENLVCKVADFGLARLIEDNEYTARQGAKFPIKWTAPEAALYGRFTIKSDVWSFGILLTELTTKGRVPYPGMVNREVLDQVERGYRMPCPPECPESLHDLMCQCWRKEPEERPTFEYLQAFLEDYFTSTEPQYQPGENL

Consider `COc1cc(Nc2c(C#N)cnc3cc4cc(OCCN5CCOCC5)c(OC)cc4cc23)c(Cl)cc1Cl`, for which the IC50 (as a rule, the concentration that gives 50% inhibition) in test [1] was above 10 µM; in [2], above 10 µM; in test [3] it was 2.5 µM; in [4], 0.00046 µM. In addition, the Activity amounted to 1.9 µg/mL in the test on Mus musculus [5], 0.3 µg/mL with Mus musculus [6], 0.02 µg/mL with Mus musculus [7] and 2.1 µg/mL in the test with Mus musculus [8]. Moreover, in the test listed under Mus musculus [9], the Growth inhibiton worked out at 25%.
Turning to `COc1cc(Nc2c(C#N)cnc3cc4cc(OCCN5CCN(C)CC5)c(OC)cc4cc23)c(Cl)cc1Cl`, the Activity with Mus musculus [10] came to 0.63 µg/mL; with Mus musculus [11] it was 0.7 µg/mL; with Mus musculus [7] it was 0.24 µg/mL; in the test on Mus musculus [8], 1.3 µg/mL. For the same compound, in the test filed under Mus musculus [9], the Growth inhibiton is listed as 20%.
